Values of other authors, collected in paper PMC9353746 (ACS chemical neuroscience, 2021).

Target: T1, recombinant A1 adenosine receptor (human) (Homo sapiens, UniProt P30542)
T1 sequence (P30542 1-326): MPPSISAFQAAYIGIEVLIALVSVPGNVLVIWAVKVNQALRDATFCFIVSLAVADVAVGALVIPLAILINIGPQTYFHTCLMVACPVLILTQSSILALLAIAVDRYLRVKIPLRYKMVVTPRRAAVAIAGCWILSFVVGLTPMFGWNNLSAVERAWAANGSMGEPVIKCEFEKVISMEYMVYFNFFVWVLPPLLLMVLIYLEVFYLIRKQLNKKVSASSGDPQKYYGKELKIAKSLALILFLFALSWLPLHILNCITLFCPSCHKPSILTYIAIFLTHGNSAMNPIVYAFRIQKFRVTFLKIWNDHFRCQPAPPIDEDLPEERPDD
Settings: read-out: Ki, A1R

Structure (SMILES): COc1cccc(-c2c(C#N)c(N)nc(SCc3cccc(C)n3)c2C#N)c1 [[^11C]MMPD, 2-amino-4-(3-(methoxy-^11C)phenyl)-6-(((6-methylpyridin-2-yl)methyl)thio)pyridine-3,5-dicarbonitrile]
- Ki: 0.49 nM
